{"source": "paper PMC3700907", "about": "(PLoS ONE, 2013)", "key": {"[1]": {"assay_type": "physicochemical"}, "mPrP(23–230) monomer": {"molecular_target": "mPrP(23–230) monomer (Mus musculus, UniProt P04925)", "sequence (P04925 23-230 limits assumed)": "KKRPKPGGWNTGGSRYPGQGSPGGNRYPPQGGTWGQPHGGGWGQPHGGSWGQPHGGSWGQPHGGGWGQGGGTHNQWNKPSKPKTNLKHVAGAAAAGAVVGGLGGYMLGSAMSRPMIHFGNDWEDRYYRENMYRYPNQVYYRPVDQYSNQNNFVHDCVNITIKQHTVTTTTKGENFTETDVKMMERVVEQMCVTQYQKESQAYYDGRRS", "details": "pH 6"}, "[2]": {"assay_type": "physicochemical", "details": "pH 3.7"}}, "note": "Values joined by “and” are separate entries in the source; they are usually repeats but may differ in a detail not shown here. Equal entries are not always repeated. Where two headings read alike, the source gives them in different places."}
{"substance": "Ac-NLKHVAGAAAAGAVVGGLGG-NH2 [mPrP(107–126)]", "values": [{"measurement": "monomer concentration remained in solution after fibrillization", "setting": "[1]; pH 7.4", "result": "12.4 µM and 11.1 µM and 6.6 µM"}, {"measurement": "average lag time of amyloid formation of mPrP(23–230) relative to unseeded reaction", "setting": "mPrP(23–230) monomer", "result": "slightly prolonged"}, {"measurement": "cross-seeding effect on mPrP(23–230) monomer", "setting": "mPrP(23–230) monomer", "result": "no seeding effect"}]}
{"substance": "Ac-YMLGSAMSRPMIHFGND-NH2 [mPrP(127–143)]", "values": [{"measurement": "monomer concentration remained in solution after fibrillization", "setting": "[1]; pH 3.7", "result": "32.6 µM and 35.6 µM and 27.2 µM"}, {"measurement": "average lag time for amyloidogenesis", "setting": "[2]", "result": "hardly detectable"}, {"measurement": "cross-seeding effect on mPrP(23–230) monomer", "setting": "mPrP(23–230) monomer", "result": "induced immediately"}]}
